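Interpolation was linear, between the two tested concentrations surrounding the appropriate level; five concentrations were tested over 48 hours in 96-well plates. The concentration for full growth arrest is given as TGI.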
Columns and labels:
Assay in all cases: inhibition of tumour cell growth, NCI panel, 48 h
COLO 205 colon = tested on: COLO 205 colon
UACC-257 melanoma = tested on: UACC-257 melanoma
HL-60(TB) leukemia = tested on: HL-60(TB) leukemia
CAKI-1 renal = tested on: CAKI-1 renal
HCT-116 colon = tested on: HCT-116 colon
SK-MEL-2 melanoma = tested on: SK-MEL-2 melanoma
UACC-62 melanoma = tested on: UACC-62 melanoma
OVCAR-4 ovarian = tested on: OVCAR-4 ovarian
LOX IMVI melanoma = tested on: LOX IMVI melanoma
MDA-MB-231 breast = tested on: MDA-MB-231 breast
HS 578T breast = tested on: HS 578T breast
BT-549 breast = tested on: BT-549 breast
NCI/ADR-RES ovarian = tested on: NCI/ADR-RES ovarian
SK-MEL-28 melanoma = tested on: SK-MEL-28 melanoma
NCI-H226 lung = tested on: NCI-H226 lung
TK-10 renal = tested on: TK-10 renal
HCT-15 colon = tested on: HCT-15 colon
MDA-MB-435 = tested on: MDA-MB-435
RXF 393 renal = tested on: RXF 393 renal
IGROV1 ovarian = tested on: IGROV1 ovarian

| SMILES | TGI (COLO 205 colon) [µM] | TGI (UACC-257 melanoma) [µM] | TGI (HL-60(TB) leukemia) [µM] | TGI (CAKI-1 renal) [µM] | TGI (HCT-116 colon) [µM] | TGI (SK-MEL-2 melanoma) [µM] | TGI (UACC-62 melanoma) [µM] | TGI (OVCAR-4 ovarian) [µM] | TGI (LOX IMVI melanoma) [µM] | TGI (MDA-MB-231 breast) [µM] | TGI (HS 578T breast) [µM] | TGI (BT-549 breast) [µM] | TGI (NCI/ADR-RES ovarian) [µM] | TGI (SK-MEL-28 melanoma) [µM] | TGI (NCI-H226 lung) [µM] | TGI (TK-10 renal) [µM] | TGI (HCT-15 colon) [µM] | TGI (MDA-MB-435) [µM] | TGI (RXF 393 renal) [µM] | TGI (IGROV1 ovarian) [µM] |
| --- | --- | --- | --- | --- | --- | --- | --- | --- | --- | --- | --- | --- | --- | --- | --- | --- | --- | --- | --- | --- |
| O=C(CCCN1CCC2(CC1)CC(=O)N(N1CCCCCC1)C2=O)c1ccccc1 | > 100 | > 100 | > 100 | > 100 | > 100 | > 100 | > 100 | > 100 | > 100 | > 100 | > 100 | > 100 | > 100 | > 100 | > 100 | > 100 | > 100 | > 100 | > 100 | > 100 |
| Clc1cc(Cl)cc(C=NC23CC4CC(CC(C4)C2)C3)c1 | > 10 | > 10 | > 10 | > 10 | > 10 | > 10 | > 10 | > 10 | > 10 | > 10 | > 10 | > 10 | > 10 | > 10 | > 10 | > 10 | > 10 | > 10 | > 10 | > 10 |
| CCCCc1ccc(Nc2nc(SC)c3[nH]cnc3n2)cc1 | > 100 | > 100 | > 46.4 | > 100 | > 100 | > 100 | > 100 | > 100 | > 100 | > 100 | > 100 | > 100 | > 100 | > 100 | > 100 | > 100 | > 100 | > 100 | > 100 | > 100 |
| N#Cc1c(-c2ccc([N+](=O)[O-])cc2)c(C#N)c(=O)n(NS(=O)(=O)c2ccccc2)c1-c1ccccc1 | > 100 | > 100 | > 100 | > 100 | > 100 | > 100 | > 100 | > 100 | > 100 | > 100 | > 100 | > 100 | > 100 | > 100 | > 100 | > 100 | > 100 | > 100 | > 100 | > 100 |
| Cn1c2ccc3cc2c(=S)c2cc(ccc21)OCCOCCOCCOCCOCCO3 | > 10 | > 10 | > 10 | > 10 | > 10 | > 10 | > 10 | > 10 | > 10 | > 10 | > 10 | > 10 | > 10 | > 10 | > 10 | > 10 | > 10 | > 10 | > 10 | > 10 |
| CC1=NN(c2nc(N)nc(CSc3nc4n(c(=S)n3)CCN4)n2)C(C)(C)C1 | > 100 | > 100 | > 100 | 61.2 | > 100 | 62.6 | > 100 | > 100 | > 100 | > 100 | 41.3 | > 100 | > 100 | > 100 | 53.1 | > 100 | > 100 | > 100 | 38.7 | 51.5 |
| N#CC(=C1CCN(CCCC(=O)c2ccc(F)cc2)CC1)c1ccccc1 | > 100 | > 100 | > 100 | > 100 | > 100 | > 100 | > 100 | > 100 | > 100 | > 100 | > 100 | > 100 | > 100 | > 100 | > 100 | > 100 | > 100 | > 100 | > 100 | > 100 |

— PubChem BioAssay (NCI)
